Laboratory results reported in ChEMBL document CHEMBL1909046, “DrugMatrix in vitro pharmacology data”.

Experiments:
Progesterone receptor = target: T1, Progesterone receptor (Bos taurus, UniProt Q690N0); assay: DRUGMATRIX: Progesterone radioligand binding (ligand: [3H] R-5020); assay type: tissue-based, Uterus; conditions: Not Active = under 50% inhibition at 10 µM
T1 sequence (Q690N0 whole entry): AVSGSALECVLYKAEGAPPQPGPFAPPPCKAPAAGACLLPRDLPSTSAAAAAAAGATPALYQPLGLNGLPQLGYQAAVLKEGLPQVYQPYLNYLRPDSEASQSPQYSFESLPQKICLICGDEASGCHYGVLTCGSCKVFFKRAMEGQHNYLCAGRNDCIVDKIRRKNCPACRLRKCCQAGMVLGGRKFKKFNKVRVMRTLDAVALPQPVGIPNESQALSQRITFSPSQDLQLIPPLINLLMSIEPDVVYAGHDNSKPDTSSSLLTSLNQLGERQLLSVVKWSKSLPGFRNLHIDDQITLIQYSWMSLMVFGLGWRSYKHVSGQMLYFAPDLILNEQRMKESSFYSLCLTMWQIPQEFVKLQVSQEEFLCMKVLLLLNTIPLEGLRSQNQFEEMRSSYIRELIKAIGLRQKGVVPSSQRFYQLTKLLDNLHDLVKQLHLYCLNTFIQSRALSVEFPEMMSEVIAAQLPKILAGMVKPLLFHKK

[1] = target: Delta-type opioid receptor (Homo sapiens, UniProt P41143); assay type: cell membranes, HEK293, Membrane; conditions: hek293; also: in other assays of this panel Not Active means under 50% inhibition at 10 µM
[2] = target: T2, Muscarinic acetylcholine receptor M2 (Homo sapiens, UniProt P08172); assay type: cell membranes, CHO-K1, Membrane; conditions: cho-k1; also: in other assays of this panel Not Active means under 50% inhibition at 10 µM
T2 sequence (P08172 whole entry): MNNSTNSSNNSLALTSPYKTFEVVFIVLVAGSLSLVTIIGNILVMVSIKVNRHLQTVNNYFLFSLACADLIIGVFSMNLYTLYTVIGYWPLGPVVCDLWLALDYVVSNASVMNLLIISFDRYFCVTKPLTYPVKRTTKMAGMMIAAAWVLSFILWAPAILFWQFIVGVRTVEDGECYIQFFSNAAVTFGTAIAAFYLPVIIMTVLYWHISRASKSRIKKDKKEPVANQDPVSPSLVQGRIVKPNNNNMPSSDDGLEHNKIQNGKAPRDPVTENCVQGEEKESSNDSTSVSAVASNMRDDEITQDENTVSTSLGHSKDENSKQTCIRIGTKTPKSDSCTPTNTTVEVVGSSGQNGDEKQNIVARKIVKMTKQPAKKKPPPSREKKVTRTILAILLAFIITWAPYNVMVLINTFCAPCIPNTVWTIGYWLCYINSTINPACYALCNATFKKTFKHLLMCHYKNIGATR

[3] = target: Protein kinase C alpha type (Homo sapiens, UniProt P17252); assay type: cell-based; conditions: sf9;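 also: inhibition of PKCalpha kinase activity measured in an enzyme assay with histone as the phosphorylation substrate; in other assays of this panel Not Active means under 50% inhibition at 10 µM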
[4] = target: T3, Polyunsaturated fatty acid lipoxygenase ALOX15 (Oryctolagus cuniculus, UniProt P12530); assay: biochemical; assay type: tissue-based, Reticulocytes; conditions: reticulocytes;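 also: inhibition of 15-lipoxygenase enzyme activity measured with linoleic acid as the substrate; in other assays of this panel Not Active means under 50% inhibition at 10 µM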
T3 sequence (P12530 whole entry): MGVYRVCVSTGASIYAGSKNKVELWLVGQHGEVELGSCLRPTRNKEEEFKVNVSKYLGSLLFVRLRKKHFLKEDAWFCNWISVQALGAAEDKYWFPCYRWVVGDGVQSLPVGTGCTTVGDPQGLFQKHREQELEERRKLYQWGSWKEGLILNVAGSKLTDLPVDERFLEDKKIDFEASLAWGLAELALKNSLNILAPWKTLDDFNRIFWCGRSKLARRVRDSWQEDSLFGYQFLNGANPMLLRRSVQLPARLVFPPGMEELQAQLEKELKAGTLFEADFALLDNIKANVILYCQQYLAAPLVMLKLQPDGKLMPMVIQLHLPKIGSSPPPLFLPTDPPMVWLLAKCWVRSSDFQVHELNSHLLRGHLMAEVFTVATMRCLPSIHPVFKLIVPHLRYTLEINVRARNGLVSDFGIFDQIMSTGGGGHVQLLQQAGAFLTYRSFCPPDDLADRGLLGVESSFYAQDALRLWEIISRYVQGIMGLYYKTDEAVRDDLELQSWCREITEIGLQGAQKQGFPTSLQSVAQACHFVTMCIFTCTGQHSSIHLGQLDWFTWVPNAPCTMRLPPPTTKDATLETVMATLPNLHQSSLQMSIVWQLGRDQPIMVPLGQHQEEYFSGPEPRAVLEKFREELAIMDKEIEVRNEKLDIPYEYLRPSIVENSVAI

Cytochrome P450 2A6 = target: T4, Cytochrome P450 2A6 (Homo sapiens, UniProt P11509); conditions: bti-tn-5b1-4; also: in other assays of this panel Not Active means under 50% inhibition at 10 µM
T4 sequence (P11509 whole entry): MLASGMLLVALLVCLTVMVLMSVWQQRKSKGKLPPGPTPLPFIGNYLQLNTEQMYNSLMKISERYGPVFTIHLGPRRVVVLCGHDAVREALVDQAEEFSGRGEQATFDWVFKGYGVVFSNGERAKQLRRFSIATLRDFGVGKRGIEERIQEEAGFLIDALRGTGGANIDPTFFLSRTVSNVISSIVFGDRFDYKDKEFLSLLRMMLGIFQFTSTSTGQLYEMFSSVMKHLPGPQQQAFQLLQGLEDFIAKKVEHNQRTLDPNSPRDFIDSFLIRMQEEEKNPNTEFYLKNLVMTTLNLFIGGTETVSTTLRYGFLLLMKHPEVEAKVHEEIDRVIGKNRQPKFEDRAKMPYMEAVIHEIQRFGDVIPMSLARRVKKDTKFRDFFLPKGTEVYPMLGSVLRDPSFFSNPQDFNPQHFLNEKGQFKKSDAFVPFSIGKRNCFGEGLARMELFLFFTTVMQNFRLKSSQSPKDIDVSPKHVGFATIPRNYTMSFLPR

Sequence of Delta-type opioid receptor (P41143 whole entry): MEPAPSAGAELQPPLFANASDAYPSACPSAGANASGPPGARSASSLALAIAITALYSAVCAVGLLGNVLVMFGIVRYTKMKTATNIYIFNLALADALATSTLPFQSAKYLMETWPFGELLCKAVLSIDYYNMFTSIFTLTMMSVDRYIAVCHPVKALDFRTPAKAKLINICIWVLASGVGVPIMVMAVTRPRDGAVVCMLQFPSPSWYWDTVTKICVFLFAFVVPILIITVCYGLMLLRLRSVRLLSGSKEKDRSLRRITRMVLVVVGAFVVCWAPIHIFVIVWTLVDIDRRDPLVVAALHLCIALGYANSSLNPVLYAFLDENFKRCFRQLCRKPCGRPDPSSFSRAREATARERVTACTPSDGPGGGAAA

CC[C@]1(O)C[C@@H]2CN(CCc3c([nH]c4ccccc34)[C@@](C(=O)OC)(c3cc4c(cc3OC)N(C)[C@H]3[C@@](O)(C(N)=O)[C@H](O)[C@]5(CC)C=CCN6CC[C@]43[C@@H]65)C2)C1 [VINDESINE]
IC50 (Progesterone receptor): Not Active
IC50 [1]: Not Active
IC50 [2]: Not Active
IC50 [3]: Not Active
IC50 [4]: Not Active
IC50 (Cytochrome P450 2A6): Not Active
Ki (Cytochrome P450 2A6): Not Active

CCn1cc(C(=O)O)c(=O)c2cc(F)c(N3CCNC(C)C3)c(F)c21 (stereo not drawn) [LOMEFLOXACIN]
IC50 (Progesterone receptor): Not Active
IC50 [1]: Not Active
IC50 [2]: Not Active
IC50 [3]: Not Active
IC50 [4]: Not Active
IC50 (Cytochrome P450 2A6): Not Active
Ki (Cytochrome P450 2A6): Not Active

CN1CCN(c2c(F)cc3c(=O)c(C(=O)O)cn(CCF)c3c2F)CC1 [FLEROXACIN]
IC50 (Progesterone receptor): Not Active
IC50 [1]: Not Active
IC50 [2]: Not Active
IC50 [3]: Not Active
IC50 [4]: Not Active
IC50 (Cytochrome P450 2A6): Not Active
Ki (Cytochrome P450 2A6): Not Active

CC(C)(C(=O)O)c1ccc(C(O)CCCN2CCC(C(O)(c3ccccc3)c3ccccc3)CC2)cc1 (stereo not drawn) [FEXOFENADINE]
IC50 (Progesterone receptor): Not Active
IC50 [1]: Not Active
IC50 [2]: Not Active
IC50 [3]: Not Active
IC50 [4]: Not Active
IC50 (Cytochrome P450 2A6): Not Active
Ki (Cytochrome P450 2A6): Not Active

C[C@H]1COc2c(N3CCN(C)CC3)c(F)cc3c(=O)c(C(=O)O)cn1c23.C[C@H]1COc2c(N3CCN(C)CC3)c(F)cc3c(=O)c(C(=O)O)cn1c23.O [LEVOFLOXACIN]
IC50 (Progesterone receptor): Not Active
IC50 [1]: Not Active
IC50 [2]: Not Active
IC50 [3]: Not Active
IC50 [4]: Not Active
IC50 (Cytochrome P450 2A6): Not Active
Ki (Cytochrome P450 2A6): Not Active

NC(=O)c1cccc(N)c1 [3-AMINOBENZAMIDE]
IC50 (Progesterone receptor): Not Active
IC50 [1]: Not Active
IC50 [2]: Not Active
IC50 [3]: Not Active
IC50 [4]: Not Active
IC50 (Cytochrome P450 2A6): Not Active
Ki (Cytochrome P450 2A6): Not Active

CC(=O)OC[C@H]1O[C@@H](n2ncc(=O)[nH]c2=O)[C@H](OC(C)=O)[C@@H]1OC(C)=O [AZARIBINE]
IC50 (Progesterone receptor): Not Active
IC50 [1]: Not Active
IC50 [2]: Not Active
IC50 [3]: Not Active
IC50 [4]: Not Active
IC50 (Cytochrome P450 2A6): Not Active
Ki (Cytochrome P450 2A6): Not Active

NC(=O)N1c2ccccc2CC(=O)c2ccccc21 [OXCARBAZEPINE]
IC50 (Progesterone receptor): Not Active
IC50 [1]: Not Active
IC50 [2]: Not Active
IC50 [3]: Not Active
IC50 [4]: Not Active
IC50 (Cytochrome P450 2A6): Not Active
Ki (Cytochrome P450 2A6): Not Active

C#C[C@]1(O)CC[C@H]2[C@@H]3CCC4=CC(=O)CC[C@]4(C)[C@H]3CC[C@@]21C [ETHISTERONE]
IC50 (Progesterone receptor; read-out: IC50): 59 nM
Ki (Progesterone receptor; read-out: Ki): 7.75 nM
IC50 [1]: Not Active
IC50 [2]: Not Active
IC50 [3]: Not Active
IC50 [4]: Not Active
IC50 (Cytochrome P450 2A6): Not Active
Ki (Cytochrome P450 2A6): Not Active

CCC1=C(C)CN(C(=O)NCCc2ccc(S(=O)(=O)NC(=O)N[C@H]3CC[C@H](C)CC3)cc2)C1=O [GLIMEPIRIDE]
IC50 (Progesterone receptor): Not Active
IC50 [1]: Not Active
IC50 [2]: Not Active
IC50 [3]: Not Active
IC50 [4]: Not Active
IC50 (Cytochrome P450 2A6): Not Active
Ki (Cytochrome P450 2A6): Not Active

O=C(O)CCCc1cccs1
IC50 (Progesterone receptor): Not Active
IC50 [1]: Not Active
IC50 [2]: Not Active
IC50 [3]: Not Active
IC50 [4]: Not Active
IC50 (Cytochrome P450 2A6): Not Active
Ki (Cytochrome P450 2A6): Not Active
